Measured values taken from publication PMC5701174 (Scientific Reports, 2017).

Target: T1, PlaA (rPlaA, Strep-PlaA) (Legionella pneumophila, UniProt A0A378KFD4)
T1 construct: gene NCTC12000_02489
Settings: 37 °C, 3 h; 25 ng protein in 50 µl; without ProA

T1 sequence (A0A378KFD4 20-309 limits assumed): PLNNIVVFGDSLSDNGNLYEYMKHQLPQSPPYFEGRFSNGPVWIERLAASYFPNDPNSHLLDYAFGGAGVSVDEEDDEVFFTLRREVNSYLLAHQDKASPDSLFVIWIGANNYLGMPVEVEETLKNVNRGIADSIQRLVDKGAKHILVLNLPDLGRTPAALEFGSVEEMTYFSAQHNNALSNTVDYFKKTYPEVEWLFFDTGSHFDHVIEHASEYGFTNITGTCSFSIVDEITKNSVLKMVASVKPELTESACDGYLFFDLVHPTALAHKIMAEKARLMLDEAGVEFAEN

Row | Compound | free fatty acid quantification
1 | CCCCCCCCCCCCCCCC(=O)OC[C@@H](O)COP(=O)([O-])OCC[N+](C)(C)C [LPC, 1-monopalmitoyllyso-phosphatidylcholine] | rPlaA possessed lipase and LPLA activities, the latter especially towards LPG and LPC
2 | CCCCCCCCCCCCCCCC(=O)OC[C@@H](O)COP(=O)(O)OCC(O)CO (some centres unmarked) [LPG, 1-mono-palmitoyllysophosphatidylglycerol] | rPlaA possessed lipase and LPLA activities, the latter especially towards LPG and LPC
